Laboratory results as given in patent publication US20200009253A1, “Compositions and Methods for Treatment of Infections” (Thompson Cooper Laboratories, LLC, priority 2011, published 2020).

Assays:
[1] = Solubility of carbamide peroxide in alcohols; assay type: physicochemical; details: solid carbamide peroxide
Method: On a weight basis, 18.5% carbamide peroxide, 3.0% glycerol, 73.1% ethyl alcohol, 4.5% luviskol VA 64-polyvinylpyrrolidone vinyl alcohol, and 0.9% Klucel HF, were mixed in a vessel and allowed to thicken. The source of peroxide was solid carbamide peroxide, which is only soluble in isopropyl alcohol to about 10% and in ethanol to about 20%, therefore luviskol VA 64-polyvinylpyrrolidone vinyl alcohol is added to supersaturate the carbamide peroxide, and glycerol is added to retain the carbamide peroxide in solution following ethanol evaporation.

[2] = Sensation (tingling, burning, pain) under the nail after application; assay type: in vivo, human; details: 3% in a solvent system containing a highly volatile solvent; after 15-30 minutes
Text: (§1) Lower levels of hydrogen peroxide in the present invention can be used to treat infected skin or mucous membranes such as canker sores. Depending on the concentration of peroxide, penetration through a nail will also elicit sensations in certain subjects ranging from tingling to burning, which may be mildly painful at higher concentrations. Embodiments of the invention comprising an optional local anesthetic may be appropriate when using such higher concentrations. Effectiveness may be measured by a reduction of, or complete eradication of, the nail fungus over the course of treatment, and further evidenced by healthy nail growth. On a weight basis, 9% hydrogen peroxide, 21% water, 69.5% isopropyl alcohol, and 0.5% Klucel HF (a thickening agent, a hydroxypropylcellulose polymer), were mixed in a vessel and allowed to thicken. (The source of the peroxide was a 30% peroxide solution.) The composition could easily be brushed onto a nail surface, which dried in approximately 1 minute, and the residual polymer could subsequently be removed by washing in water. […] On a weight basis, 6% hydrogen peroxide, 6% water, 87.5% isopropyl alcohol, and 0.5% Klucel HF, were mixed in a vessel and allowed to thicken. […] The resulting composition differed from that of Example 2a in that there was no isopropyl alcohol or any other highly volatile solvent, the quantity thereof being replaced with water. […]

[3] = Whitening effect of the nail after brushing the composition onto the nail surface (shows peroxide penetration); assay type: in vivo, human
Text: as §1

NC(N)=O.OO [carbamide peroxide]
solubility in ethanol [1]: about 20% | solubility in isopropyl alcohol [1]: about 10%

OO [hydrogen peroxide, Hydrogen peroxide]
sensation after application [2]: a slight tingling sensation may sometimes be felt | visual effect on normal finger nail ([3]; 3% aqueous concentration, thin film via a brush): no visual effect | visual effect on nail ([3]; same amount and 3% concentration in a solvent system containing a highly volatile solvent): signs of whiteness
